Source: patent publication US11730712B2, “Functionalized long-chain hydrocarbon mono- and di-carboxylic acids and derivatives thereof, and their use for the prevention or treatment of disease” (ESPERVITA THERAPEUTICS, INC., priority 2021, dated 2023)
Several values for one entry are separate records, joined by “and”; a condition that tells them apart may be missing. Equal entries are not always repeated.

Key:
Human ACC2 = target: T1, Human ACC2 (Homo sapiens, UniProt O00763); experiment: ACC2 enzymatic assay (ADP-Glo); format: biochemical; settings: recombinant human ACC2 1 nM, 10 μM ATP, 10 μM acetyl CoA; Run 1-3; read-out: Compound IC50 (M) ACC2
T1 construct: FLAG (C); His (C); purchased BPS Biosciences 50201; host or cells: Baculovirus infected Sf9 cells
Experimental: Human ACC1 (Cat#50202 Lot #120830) and ACC2 (Cat #50201 Lot #160217) were obtained from BPS Biosciences, San Diego, Calif. 92121. Human ACC1 had C-terminal flag and His-tags with a MW of 270 KDa after purification from Baculovirus infected Sf9 cell expression system and came as a solution in 50 mM Tris-HCl, pH 8.0, 500 mM NaCl, 10% glycerol, 1 mM DTT, 100 μg/ml FLAG peptide with 70% purity. The stock concentration was 0.25 mg/ml corresponding to 0.926 μM. Human ACC2 was also purified from Baculovirus infected Sf9 expression system. […] The stock concentration was 0.1 mg/ml corresponding to 0.36 μM. The assay buffer for measuring the activity of ACC contained: 30 mM HEPES (pH 7.4), 2 mM MgCl2, 0.01% Brij35, 2 mM DTT, 1% DMSO (solvent for compound). For ACC1 and ACC2 assays, the following concentrations of substrate and cofactors were used: 12 mM NaHCO3, 10 μM acetyl CoA, 10 μM ATP, and 2 mM K-citrate. The recombinant human enzyme was used at 5 nM for ACC1 and 1 nM for ACC2. In brief, enzyme alone in the above buffer without substrate was used for background. All test materials were dissolved in 100% DMSO using acoustic technology (Echo550). The prepared solution was preincubated for 15 min followed by the addition of 5 μL/well of ADP standard. ATP was then added to start the reaction. The assay contents were spun and briefly shaken followed by incubation at room temperature for 1 h. At the end of completion of assay, 5 μL of ADP-Glo was added to each well to stop the reaction. The contents were mixed, spun and incubated at room temperature for 40 min followed by the addition of 10 μL/well of ADP detection reagent. The contents were spun, mixed and covered with plastic to measure luminescence. […] The light generated, measured in a luminometer, correlates to the amount of ADP generated in the ACC assay, which is indicative of ACC activity.
The enzyme concentrations for ACC1 and ACC2 were 5 nM and 1 nM, respectively.
Data represent nM or μM ADP produced, % Activity (relative to no inhibitor controls), and curve fits were performed by GraphPad Prism software. […]

[1] = Single and repeat dose plasma and tissue pharmacokinetics in male C57BL/6 mice; format: in vivo, mouse
Source text: Materials and methods. The study involved two arms; a single dose pharmacokinetic study and a 4-day repeated-dose pharmacokinetic study. For each arm, 56 inbred male C57BL/6 mice, aged at 6-7 week, were included. All animals were purchased from Charles River Lab (CRL, MA). Upon their arrival, they were kept in special-pathogen-free environment all the time. Briefly, they were housed in group on corncob bedding (ScottPharma, MA) in Innovive® caging system (Innovive, Calif.) on a 12-hour light-dark cycle (0700-1900) at 68-74° F., and 30-70% humidity. They were allowed continually to access water and regular rodent Purina 5001 diet (ScottPharma, MA) ad libitum and to acclimate in the facility for 5 days. Animal handling and procedures were conducted under the protocols and/or guidelines approved by the Institutional Animal Care and Use Committee (IACUC) of […] Biosciences, Inc. […] Also, 2× drug vehicle (3% CMC+0.4% Tween-20) was prepared and stored at 4° C. for a week. On the day of injection, 1 ml frozen 2× aqueous stock solution (20 mg/ml drug solution) aliquot is thawed and mix with another 1 ml 2× drug vehicle (3% Carboxymethyl cellulose+0.4% Tween 20) to prepare 10 mg/ml drug solution. A 25 g mouse would receive 250 μl of 10 mg/ml solution for a dose of 100 mg/kg. Lower concentrations can be achieved by further diluting the 10 mg/ml in 1× vehicle solution with 1× vehicle prepared with milliQ water. On each dosing day, both compound stocks and 2× vehicle were warmed to room temperature and was mixed at 1:1 ratio, given to a concentration of 10 mg/mL. Then 1: 5-fold dilutions were obtained with 1× vehicle to 2 mg/mL. Dosing volume at 10 mL/kg (final dosage: 20 mg/kg) in the morning. […] Study Design. In each group 4 male 6-7-week-old C57BL/6 mice were used. Doses were administered once daily via oral gavage for either a day (single dose arm, QD×1) or 4 consecutive days (repeated dose arm, QD×4) (FIG. 26). Blood, half of brain hemisphere, and one lobe of liver samples were collected from all animals of Day 1 (QD×1 arm) at pre-dose and 0.25, 2, 4, 8, 24 and 36 hours post dose, or Day 4 (QD×4 arm) at pre-dose and 0.25, 2, 4, 8, 24 and 48 hours post dose. Blood samples were collected by cardiac puncture. The blood samples were maintained in wet ice first and centrifuged to obtain plasma (2000×g, 4° C., 5 min). All three samples from each mouse were analyzed for either Compound I-1 or Compound I-32 contents by Integrated Analytical Solutions (Berkeley, Calif.) and the results were used for the generation of the pharmacokinetic graphs. Sample collection, storage, bioanalysis and statistical analysis. All plasma and tissue samples were analyzed by discovery grade bioanalytical method developed for estimation of each test compound in plasma and tissue samples using LC-MS/MS systems. Plasma samples were prepared as follows. Three volumes of acetonitrile containing internal standard was added to one volume of plasma to precipitate proteins. Samples were centrifuged (3000×g for 10 min) and supernatant removed for analysis by LC-MS/MS. Calibration standards and quality controls were made by preparation of a 1 mg/mL stock solution in MeOH and subsequently a series of working solutions in MeOH:water (1/1, v/v) which were spiked into blank plasma to yield a series of calibration standard samples in the range of 1.0 ng/mL to 10 μg/mL. All incurred PK/PD plasma samples were treated identically to the calibration standards and quality control samples. LC-MS/MS analysis was performed utilizing multiple reaction monitoring for detection of characteristic ions for each drug candidate, additional related analytes and internal standard. Tissue samples were prepared as follows, three volumes of PBS buffer (pH 7.4) were added to one volume of each tissue sample which was then homogenized to obtain each tissue homogenate sample. […]

[2] = male, C57BL/6, mouse brain, 20 mg/kg/day PO, repeat dose QD × 4
[3] = male, C57BL/6, mouse liver, 20 mg/kg PO, single dose QD × 1
[4] = male, C57BL/6, mouse liver, 20 mg/kg/day PO, repeat dose QD × 4
[5] = male, C57BL/6, mouse plasma, 20 mg/kg PO, single dose QD × 1
[6] = male, C57BL/6, mouse plasma, 20 mg/kg/day PO, repeat dose QD × 4
[7] = mouse brain, 20 mg/kg PO, single dose QD × 1
[8] = mouse brain, 20 mg/kg/day PO, repeat dose QD × 4
[9] = mouse liver, 20 mg/kg PO, single dose QD × 1
[10] = mouse liver, 20 mg/kg/day PO, repeat dose QD × 4

T1 sequence (O00763 whole entry): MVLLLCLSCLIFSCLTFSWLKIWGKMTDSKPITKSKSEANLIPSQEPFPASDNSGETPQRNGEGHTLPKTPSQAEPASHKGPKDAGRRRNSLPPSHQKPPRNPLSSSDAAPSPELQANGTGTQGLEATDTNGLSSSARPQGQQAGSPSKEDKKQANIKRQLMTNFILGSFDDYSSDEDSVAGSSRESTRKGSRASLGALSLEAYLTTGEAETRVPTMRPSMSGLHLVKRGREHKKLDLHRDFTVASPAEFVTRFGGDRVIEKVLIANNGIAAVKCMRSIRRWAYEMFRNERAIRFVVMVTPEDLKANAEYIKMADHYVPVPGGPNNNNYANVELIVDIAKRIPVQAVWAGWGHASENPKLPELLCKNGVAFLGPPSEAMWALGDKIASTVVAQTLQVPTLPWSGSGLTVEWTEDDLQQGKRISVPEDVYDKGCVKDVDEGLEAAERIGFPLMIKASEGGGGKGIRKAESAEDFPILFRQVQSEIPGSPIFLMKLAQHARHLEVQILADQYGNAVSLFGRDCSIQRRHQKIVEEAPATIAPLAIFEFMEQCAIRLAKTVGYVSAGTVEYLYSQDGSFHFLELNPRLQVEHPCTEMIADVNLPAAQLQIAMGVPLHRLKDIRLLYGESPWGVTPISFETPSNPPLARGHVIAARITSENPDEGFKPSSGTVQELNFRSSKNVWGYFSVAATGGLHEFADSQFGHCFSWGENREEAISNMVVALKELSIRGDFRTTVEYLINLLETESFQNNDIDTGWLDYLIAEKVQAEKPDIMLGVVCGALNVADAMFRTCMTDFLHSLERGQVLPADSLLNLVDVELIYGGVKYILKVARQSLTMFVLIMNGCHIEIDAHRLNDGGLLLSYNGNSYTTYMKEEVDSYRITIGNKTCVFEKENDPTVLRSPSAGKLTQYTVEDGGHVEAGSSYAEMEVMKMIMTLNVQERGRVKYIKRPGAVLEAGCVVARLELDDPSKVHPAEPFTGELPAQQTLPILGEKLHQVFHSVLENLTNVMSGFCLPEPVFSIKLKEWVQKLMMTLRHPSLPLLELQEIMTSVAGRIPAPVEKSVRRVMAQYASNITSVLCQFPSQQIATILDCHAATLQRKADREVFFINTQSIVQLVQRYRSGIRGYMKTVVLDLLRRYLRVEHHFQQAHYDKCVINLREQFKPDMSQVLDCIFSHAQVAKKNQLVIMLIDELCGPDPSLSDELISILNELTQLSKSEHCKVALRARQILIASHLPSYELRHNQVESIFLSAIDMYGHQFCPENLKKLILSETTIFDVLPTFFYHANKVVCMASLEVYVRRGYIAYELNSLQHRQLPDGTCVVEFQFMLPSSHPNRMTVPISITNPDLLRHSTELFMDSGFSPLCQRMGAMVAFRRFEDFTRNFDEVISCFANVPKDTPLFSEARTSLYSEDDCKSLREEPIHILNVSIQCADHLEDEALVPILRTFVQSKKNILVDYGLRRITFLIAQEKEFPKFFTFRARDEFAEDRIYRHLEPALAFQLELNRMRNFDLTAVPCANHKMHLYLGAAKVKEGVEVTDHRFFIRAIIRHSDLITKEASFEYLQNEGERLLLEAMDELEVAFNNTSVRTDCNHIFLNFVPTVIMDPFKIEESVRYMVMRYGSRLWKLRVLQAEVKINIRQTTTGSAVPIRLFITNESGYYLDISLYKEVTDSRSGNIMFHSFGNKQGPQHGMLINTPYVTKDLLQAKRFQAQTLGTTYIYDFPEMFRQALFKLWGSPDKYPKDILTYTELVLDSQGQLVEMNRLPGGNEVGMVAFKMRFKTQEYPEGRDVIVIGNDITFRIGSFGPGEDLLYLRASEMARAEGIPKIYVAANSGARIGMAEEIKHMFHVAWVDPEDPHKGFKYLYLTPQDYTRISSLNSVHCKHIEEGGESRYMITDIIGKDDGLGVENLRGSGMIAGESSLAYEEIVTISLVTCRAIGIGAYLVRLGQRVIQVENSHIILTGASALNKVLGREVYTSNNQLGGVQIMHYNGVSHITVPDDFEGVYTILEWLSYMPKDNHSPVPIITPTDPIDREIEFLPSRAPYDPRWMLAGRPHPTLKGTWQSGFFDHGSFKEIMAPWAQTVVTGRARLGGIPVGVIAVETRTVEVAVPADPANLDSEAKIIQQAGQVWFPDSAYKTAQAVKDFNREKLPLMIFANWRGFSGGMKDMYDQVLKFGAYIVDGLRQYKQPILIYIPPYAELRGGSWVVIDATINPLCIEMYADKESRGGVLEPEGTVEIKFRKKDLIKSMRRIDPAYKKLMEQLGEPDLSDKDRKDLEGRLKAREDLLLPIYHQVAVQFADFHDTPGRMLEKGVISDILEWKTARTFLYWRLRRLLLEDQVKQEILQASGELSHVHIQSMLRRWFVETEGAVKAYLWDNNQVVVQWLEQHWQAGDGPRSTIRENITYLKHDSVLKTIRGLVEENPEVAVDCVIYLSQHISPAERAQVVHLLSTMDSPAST

With `CC(C)(CCCCc1cccc(CCCCC(C)(C)C(=O)SCCNC(=O)CCNC(=O)[C@H](O)C(C)(C)COP(=O)(O)OP(=O)(O)OC[C@H]2O[C@@H](n3cnc4c(N)ncnc43)[C@H](O)[C@@H]2OP(=O)(O)O)c1)C(=O)O` [Compound I-32-CoA, 6-[3-(5-Carboxy-5-methylhexyl)-phenyl]-2,2-dimethylhexanoic acid Coenzyme A Ester] as the compound, how does the IC50 (Human ACC2) read?
Its IC50 is 5.02e-06 M and 4.22e-06 M and 3.33e-06 M.

Which results are given for `CC(C)(CCCCc1cccc(CCCCC(C)(C)C(=O)O)c1)C(=O)O` [Compound I-32, 6-[3-(5-carboxy-5-methylhexyl)-phenyl]-2,2-dimethylhexanoic acid]?
half-life ([1]; male, C57BL/6, mouse brain, 20 mg/kg PO, single dose QD × 1): 3 h; half-life [1, 2]: 8 h; half-life [1, 3]: 13 h; half-life [1, 4]: 16 h; half-life [1, 5]: 9 h; half-life [1, 6]: 9.2 h; AUC0-t [1, 7]: 1,527 h*ng/g; AUC0-t [1, 8]: 6,304 h*ng/g; AUC0-t [1, 9]: 405,934 h*ng/g; AUC0-t [1, 10]: 1.01e+06 ng·h/g

Which IC50 (Human ACC2) does the source give for `CC(C)(CCCCc1ccc(CCCCC(C)(C)C(=O)SCCNC(=O)CCNC(=O)[C@H](O)C(C)(C)COP(=O)(O)OP(=O)(O)OC[C@H]2O[C@@H](n3cnc4c(N)ncnc43)[C@H](O)[C@@H]2OP(=O)(O)O)cc1)C(=O)O` [Compound I-1-CoA, 6-[4-(5-carboxy-5-methylhexyl)-phenyl]-2,2-dimethylhexanoic acid Coenzyme A ester] here?
Its IC50 is 9.41e-06 M and 7.72e-06 M and 9.06e-06 M.

With `CC(C)(CCCCc1ccc(CCCCC(C)(C)C(=O)O)cc1)C(=O)O` [Compound I-1, 6-[4-(5-carboxy-5-methylhexyl)-phenyl]-2,2-dimethylhexanoic acid] as the compound, how does the Cmax [1, 2] read?
Its Cmax is 169 ng/g.

And the half-life [1, 3]?
The half-life was 9.6 h.

And the half-life [1, 4]?
The half-life was 20.4 h.

And the half-life [1, 5]?
The half-life was 15.3 h.

And the half-life [1, 6]?
The half-life was 22 h.

And the AUC0-t ([1]; mouse brain, 20 mg/kg PO, QD × 1, value in brackets with * (reanalysis))?
Its AUC0-t is “(2,091)* h*ng/g”.

And the AUC0-t [1, 7]?
Its AUC0-t is 1,183 h*ng/g.

What about the AUC0-t ([1]; mouse brain, 20 mg/kg/day PO, QD × 4, value in brackets with * (reanalysis)) of the same compound?
The AUC0-t was “(3,995)* h*ng/g”.

And the AUC0-t [1, 8]?
The AUC0-t was 1,220 h*ng/g.

What about the AUC0-t ([1]; mouse liver, 20 mg/kg PO, QD × 1, timepoint 0.25 h samples after reanalysis) of the same compound?
Its AUC0-t is “(469,726)* h*ng/g”.

And the AUC0-t [1, 9]?
Its AUC0-t is 425,184 h*ng/g.

What about the AUC0-t ([1]; mouse liver, 20 mg/kg/day PO, QD × 4, timepoint 0.25 h samples after reanalysis) of the same compound?
Its AUC0-t is “(718,455)* h*ng/g”.

And the AUC0-t [1, 10]?
Its AUC0-t is 687,414 h*ng/g.
